Data as given in ChEMBL document CHEMBL1153190, “Novel neofusapyrones isolated from Verticillium dahliae as potent antifungal substances” (Bioorg Med Chem Lett, 2010).
Active and inactive are the calls of the source. No cut-off for these calls is given here.

Columns and labels:
HeLa = test: Cytotoxicity against human HeLa cells; type: cell-based
Bipolaris oryzae = test: Antifungal activity against Cochliobolus miyabeanus at 100 ng/ml; type: functional, organism-based
HepG2 = test: Cytotoxicity against human HepG2 cells; type: cell-based
Staphylococcus aureus = test: Antibacterial activity against methicillin-resistant Staphylococcus aureus Isolate 87-7927 at 10 ug; type: functional, organism-based

Structure (SMILES) | Activity (HeLa) | Activity (Bipolaris oryzae) | Activity (HepG2) | Activity (Staphylococcus aureus)
CCCCCCC(C)C/C(C)=C\C(C)/C=C(C)/C=C/C(O)C(C)(C)c1cc(O)c([C@@H]2O[C@H](CO)C[C@H](O)[C@H]2O)c(=O)o1 (some centres not stated) [DEOXYNEOFUSAPYRONE] | Non-toxic | Active | Non-toxic | Active
CCCCCCC(C)C/C(C)=C\C(C)/C=C(C)/C=C/C(O)C(C)c1cc(O)c([C@@H]2O[C@H](CO)C[C@H](O)[C@H]2O)c(=O)o1 (some centres not stated) | Non-toxic | Active | Non-toxic | –
